SMILES strings stand for the structures. “Also recorded” adds a separate entry of the source.

The target of one data set is T1, human recombinant COX-2 (Homo sapiens, UniProt P35354).
T1 sequence (P35354 18-604): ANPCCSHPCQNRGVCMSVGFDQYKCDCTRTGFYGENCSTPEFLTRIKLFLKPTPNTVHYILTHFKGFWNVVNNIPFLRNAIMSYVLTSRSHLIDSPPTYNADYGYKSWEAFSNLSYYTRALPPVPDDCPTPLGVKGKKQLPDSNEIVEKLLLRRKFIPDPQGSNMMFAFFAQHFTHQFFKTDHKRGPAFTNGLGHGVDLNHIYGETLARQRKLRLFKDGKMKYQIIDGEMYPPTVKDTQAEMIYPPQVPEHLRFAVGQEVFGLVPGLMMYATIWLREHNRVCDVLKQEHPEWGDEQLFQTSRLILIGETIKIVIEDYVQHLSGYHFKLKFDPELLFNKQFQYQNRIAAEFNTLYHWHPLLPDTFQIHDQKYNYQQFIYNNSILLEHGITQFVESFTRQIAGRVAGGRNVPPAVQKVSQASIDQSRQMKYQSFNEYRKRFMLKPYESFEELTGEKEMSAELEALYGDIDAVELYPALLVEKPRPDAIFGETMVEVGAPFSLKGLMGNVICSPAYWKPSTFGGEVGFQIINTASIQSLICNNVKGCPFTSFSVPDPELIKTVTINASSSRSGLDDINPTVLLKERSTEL
Description: COX colorimetric inhibitor screening assay, COX-2. The settings on record: for COX-2/COX-1 selectivity compared with meloxicam: comparison of IC50 ratios; for COX-2 inhibition effect compared with meloxicam: comparison of IC50 values; for Ratio: COX-2/COX-1: ratio of IC50 values COX-2/COX-1.

Another data set addresses T2, ovine COX-1 (Ovis aries, UniProt P05979).
T2 sequence (P05979 25-600): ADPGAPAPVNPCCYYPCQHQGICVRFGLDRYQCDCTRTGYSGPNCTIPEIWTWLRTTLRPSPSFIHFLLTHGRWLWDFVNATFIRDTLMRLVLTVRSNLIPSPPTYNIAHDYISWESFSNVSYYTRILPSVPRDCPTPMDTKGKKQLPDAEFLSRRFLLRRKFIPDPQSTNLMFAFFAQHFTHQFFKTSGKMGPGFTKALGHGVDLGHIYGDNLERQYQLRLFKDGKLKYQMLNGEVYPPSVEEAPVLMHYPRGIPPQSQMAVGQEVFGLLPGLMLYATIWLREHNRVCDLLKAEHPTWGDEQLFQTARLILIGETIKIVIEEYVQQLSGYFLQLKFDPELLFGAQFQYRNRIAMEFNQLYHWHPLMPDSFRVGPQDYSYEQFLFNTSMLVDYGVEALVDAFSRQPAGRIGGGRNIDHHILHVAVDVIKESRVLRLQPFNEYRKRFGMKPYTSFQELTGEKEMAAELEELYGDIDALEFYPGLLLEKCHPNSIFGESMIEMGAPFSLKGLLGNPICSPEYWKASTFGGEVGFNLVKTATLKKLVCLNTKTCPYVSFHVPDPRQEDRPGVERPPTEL
Description: COX colorimetric inhibitor screening assay, COX-1.

Data set [1] has as its system NHDF cells. The data set can be described thus: MTT viability assay. Type of data set: cell-based, Human. The settings on record: 24 h incubation; for Mitochondrial activity of NHDF cells: 10 µM and 50 µM, compared to control; for Mitochondrial activity of NHDF cells / Cytotoxic effect on NHDF cells: MTT; for Cytotoxic effect on NHDF cells: 10, 50 and 100 µM. On the procedure:
The viability of the Normal Human Dermal Fibroblasts (NHDF) cells was assessed after 24 h incubation with 10, 50 and 100 µM tested compounds in MTT assay. […] The less than 30% decrease in culture viability was observed only in concentration of 100 µM for compound 6b in comparison to control (i.e., no cytotoxic potential of tested compound). […] Thus, all new compounds were directed to further research.
The study was carried out using the NHDF cell line obtained from ATCC (Manassas, VA, USA). These cells are commonly used to determine the cytotoxicity of new compounds. Cells were cultured at 37 °C in a humidified 5% CO2/95% air atmosphere incubator and passaged twice a week.
(§1) The 1,2-thiazine derivatives were dissolved in DMSO to a stock concentration of 10 mM. All prepared stock solutions were stored at −20 °C for up to 6 months. For the experiment, the compounds tested were used in the concentration range of 10, 50 and 100 μM. […] The abovementioned tested compounds were tested on NHDF cells.
The viability of the cells was assessed after 24 h incubation with 10–100 µM tested compounds in MTT assay. After incubation, cell culture with a 1 mg/mL solution of MTT for 2 h at 37 °C, the formazan crystals were dissolved in isopropanol. The plates were then shaken for 30 min, and the absorbance was measured at 570 nm using VariuScan microplate reader.
For orientation: Tetrazolium dyes change colour on reduction, which living cells bring about.

For data set [2], the system named is NHDF cells. Description: DCF-DA assay of reactive oxygen species (ROS). The note with it: 1 h treatment; 10, 50 and 100 µM; compared to control. The class given is cell-based, Human. On the procedure: The level of reactive oxygen species (ROS) was evaluated in DCF-DA assay and nitric oxide (NO) in Griess assay, on NHDF cells. […] This increase may be due to the normal cellular activity due to the increased cell numbers, probably resulting from proliferation.
as §1
Levels of reactive oxygen species (ROS) and nitric oxide (NO) were evaluated in DCF-DA (2′,7′-dichlorofluorescein diacetate) and Griess (cat. No. G7921; Thermo Fisher Scientific, Waltham, MA, USA) assays, respectively. In these assays, the cells were treated with tested compounds only for 1 h. After that time, the 50 µL of supernatant were transferred into new plates to assess the NO level. The remaining supernatant was removed, the cell culture was washed, and the 25 µM DCF-DA solution was added for 1 h at 37 °C. […] The plates with DCF-DA solution were analyzed with the Varioskan LUX microplate reader (λex = 485 nm and λem = 535 nm). The NO level was analyzed by the measurement of the absorbance at 548 nm using VariuScan microplate reader.

Data set [3] in a line: Differential scanning calorimetry (DSC) of DPPC model membranes. Type of data set: physicochemical. The settings on record: pH 7.4, molar ratios 0.06–0.12. (In general: DSC measures the heat that a sample takes up or gives off during a temperature scan.)
Description: To investigate the interaction of the tricyclic 1,2-thiazine derivatives (Table 1) with model membranes, we used the differential scanning calorimetry (DSC) method. As a model of the phospholipid membrane, the multibilayers made of 1,2-dipalmitoyl-n-glycero-3-phosphatidylcholine (DPPC) in a buffer solution (pH 7.4) were used.
Tris-EDTA buffer solution (pH 7.4) and 1,2-dipalmitoyl-n-glycero-3-phosphatidyl- choline (DPPC) were purchased from Sigma-Aldrich, Merck KGaA, Darmstadt, Germany. None of the compounds studied were soluble in water, so their chloroform (P.P.H. STANLAB, Lublin, Poland, analytical grade) solutions were used for calorimetric experiments.
For each sample, 2 mg of phospholipid (DPPC) were dissolved in the appropriate amount of chloroform stock solution (5 mM) of the compounds studied (the compound: DPPC molar ratios in the samples were: 0.06, 0.08, 0.10, 0.12). The solvent was then evaporated under a stream of nitrogen gas. After that, the residual solvent was evacuated under vacuum (Rotary evaporator, Büchy Poland, Warsaw, Poland) for 2 h. In this process, the phospholipid was transferred onto the dry film on the inner surface of the Eppendorf tube. Samples were hydrated by 20 μL of Tris–EDTA buffer (pH 7.4). […] Then, the samples were transferred into aluminum sample pans of the Concavus® type (Netzsch GmbH & Co., Selb, Germany) and sealed. A pan of the same type, filled with 20 μL of Tris–EDTA buffer (pH 7.4), was employed as a reference. Measurements of the DPPC main phase transition were performed using the heat-flow measurement method at a heating rate of 1 °C per minute over a temperature range of 30–50 °C in a nitrogen dynamic atmosphere (25 mL/min). Data were analyzed off-line using Netzsch Proteus® 7.1.0 (Netzsch GmbH & Co., Selb, Germany) analysis software. The transition enthalpies were stated in [J/g]. The measured heat was normalized per gram of lipid. […] All samples were weighed on a Sartorius CPA225D-0CE analytical balance (Sartorius AG, Gottingen, Germany) with a resolution of 0.01 mg.

Description for human recombinant COX-2: (§2) The selectivity of the compounds for COX-1 or COX-2 was assessed by calculation of the IC50 ratios.
(§3) The compounds were dissolved in ethanol to get the final concentration of 100 µM. Each tested solution of compounds was transferred into a 96-well plate in three repetitions and then incubated for 2 min at RT with prepared reagents according to the manufacturing procedure. This assay measured the peroxidase component of COXs, which is evaluated as monitoring the oxidized form of N, N, N’, N’-tetramethyl-p-phenylenediamine (TMPD). The absorbance was measured using a VariuScan microplate reader at 590 nm. The data were calculated according to 3 steps. First, the average absorbance of all the samples was determined. Second, the absorbance of the background wells was subtracted from the absorbance of 100% of the starting COX-1 and COX-2 activity and the test compound wells.
Description for ovine COX-1: as §2, §3

The IC50 is the concentration at which inhibition is half-maximal. Consider `O=C(C1=C(O)c2ccccc2S(=O)(=O)N1)c1ccccc1` [Compound 4a], for which, on human recombinant COX-2, the IC50 was determined as 54.6 µM, the “COX-2/COX-1 selectivity compared with meloxicam” value (shortened to “COX-2/COX-1 selectivity”) is given as “higher COX-2/COX-1 selectivity than for meloxicam”, the “COX-2 inhibition effect compared with meloxicam” value was “stronger COX-2 inhibition effect than the meloxicam” and the “Ratio: COX-2/COX-1” value amounted to 0.6. This molecule also showed an IC50 against ovine COX-1 of 91.2 µM. In the data set with NHDF cells [1], the “Mitochondrial activity of NHDF cells” value was “statistically significant increase” and the “Cytotoxic effect on NHDF cells” value is recorded as “no cytotoxic effect was observed”. Besides, the “Level of reactive oxygen species (ROS)” value in the data set with NHDF cells [2] is “statistically significant increase”.
On to `O=C(C1=C(O)c2ccccc2S(=O)(=O)N1)c1ccc(Cl)cc1` [Compound 4c], for which, on human recombinant COX-2, the IC50 came to 55.9 µM, the “COX-2/COX-1 selectivity” value is on record as “higher COX-2/COX-1 selectivity than for meloxicam”, the “COX-2 inhibition effect compared with meloxicam” value is listed as “stronger COX-2 inhibition effect than the meloxicam” and the “Ratio: COX-2/COX-1” value was 0.63. The IC50 against ovine COX-1 worked out at 89 µM. Also, in the data set on NHDF cells [1], the “Mitochondrial activity of NHDF cells” value is recorded as “statistically significant increase” and the “Cytotoxic effect on NHDF cells” value is listed as “no cytotoxic effect was observed”.
Take `Cc1ccc(C(=O)C2=C(O)c3ccccc3S(=O)(=O)N2)cc1` [Compound 4d]: on human recombinant COX-2, the IC50 turned out to be 55.3 µM, the “COX-2/COX-1 selectivity” value is “higher COX-2/COX-1 selectivity than for meloxicam”, the “COX-2 inhibition effect compared with meloxicam” value is given as “stronger COX-2 inhibition effect than the meloxicam” and the “Ratio: COX-2/COX-1” value worked out at 0.62. Besides, at ovine COX-1, it took 89.3 µM to reach half-maximal inhibition (IC50).
In general, melting point refers to the temperature of the solid-liquid transition. For `O=C1C2=C(c3ccccc3)OCCN2S(=O)(=O)c2ccccc21` [Compound 5, 6,6-dioxo-1-phenyl-3,4-dihydro-[1,4] oxazino [4,3-b][1,2]benzothiazin-11-one], the melting point lay within 182 to 183 °C. In addition, at human recombinant COX-2, the half-inhibitory concentration (IC50) turned out to be 56.9 µM, the “COX-2 inhibition effect compared with meloxicam” value is “stronger COX-2 inhibition effect than the meloxicam” and the “Ratio: COX-2/COX-1” value stood at 0.86. This molecule showed a concentration for half-maximal inhibition (IC50) against ovine COX-1 of 66.1 µM.
The molecule `O=C1C2=C(c3ccccc3)OCCCN2S(=O)(=O)c2ccccc21` [Compound 6a, 7,7-dioxo-1-phenyl-4,5-dihydro-3H-[1,4]oxazepino[4,3-b][1,2]benzothiazin-12-one] registered a melting point of 171 to 172 °C. Also, on human recombinant COX-2, the IC50 was 89.9 µM and the “Ratio: COX-2/COX-1” value is 0.85. Further, the 50% inhibitory concentration (IC50) against ovine COX-1 was found to be 106 µM.
Take `O=C1C2=C(c3ccc(Br)cc3)OCCCN2S(=O)(=O)c2ccccc21` [Compound 6b, 1-(4-bromophenyl)-7,7-dioxo-4,5-dihydro-3H-[1,4]oxazepino[4,3-b][1,2]benzothiazin-12-one]: the figures for the IC50 on human recombinant COX-2 and against ovine COX-1 were 95.1 µM and 86.9 µM, respectively. For the same molecule, the “Decrease in culture viability” value in the data set on NHDF cells [1] (100 µM, in comparison to control) is “less than 30%”.
`O=C1C2=C(c3ccc(Cl)cc3)OCCCN2S(=O)(=O)c2ccccc21` [Compound 6c, 1-(4-chlorophenyl)-7,7-dioxo-4,5-dihydro-3H-[1,4]oxazepino[4,3-b][1,2]benzothiazin-12-one] registered a melting point of 168 to 170 °C. For the same molecule, at human recombinant COX-2, the IC50 is 94.1 µM and the “Ratio: COX-2/COX-1” value turned out to be 1.05. The same molecule registered a 50% inhibitory concentration (IC50) against ovine COX-1 of 89.8 µM. In data set [3], the “Effect on DPPC gel-liquid crystalline phase transition parameters (Tm, T½, ΔH)” value (shortened to “Effect … (Tm, T½, ΔH)”) is “most pronounced effects”. In addition, in the data set with NHDF cells [1], the “Mitochondrial activity of NHDF cells” value is “statistically significant increase”.
Regarding `Cc1ccc(C2=C3C(=O)c4ccccc4S(=O)(=O)N3CCCO2)cc1` [Compound 6d, 7,7-dioxo-1-(p-tolyl)-4,5-dihydro-3H-[1,4]oxazepino[4,3-b][1,2]benzothiazin-12-one], the melting point fell in the range of 204 to 206 °C. Further, on human recombinant COX-2, the half-maximal inhibitory concentration (IC50) was found to be 92.9 µM and the “Ratio: COX-2/COX-1” value turned out to be 0.74. On ovine COX-1, it took 126 µM to reach half-maximal inhibition (IC50). In data set [3], the “Effect … (Tm, T½, ΔH)” value is “most pronounced effects”.
`COc1ccc(C2=C3C(=O)c4ccccc4S(=O)(=O)N3CCCO2)cc1` [Compound 6e, 1-(4-methoxyphenyl)-7,7-dioxo-4,5-dihydro-3H-[1,4]oxazepino[4,3-b][1,2]benzothiazin-12-one] displayed a melting point of 144 to 145 °C. In addition, at human recombinant COX-2, the IC50 turned out to be 56.9 µM, the “COX-2/COX-1 selectivity” value is “higher COX-2/COX-1 selectivity than for meloxicam; also recorded: most selective inhibitor of COX-2”, the “COX-2 inhibition effect compared with meloxicam” value is “stronger COX-2 inhibition effect than the meloxicam” and the “Ratio: COX-2/COX-1” value is 0.49. At ovine COX-1, this molecule displayed an IC50 of 115 µM. Moreover, the “Effect … (Tm, T½, ΔH)” value in data set [3] is reported as “most pronounced effects”.
In turn, `O=C1C2=C(c3ccccc3)OCCCCN2S(=O)(=O)c2ccccc21` [Compound 7, 8,8-dioxo-1-phenyl-3,4,5,6-tetrahydro-[1,4]oxazocino[4,3-b][1,2]benzothiazin-13-one] yielded a melting point of 198 to 201 °C. Besides, at human recombinant COX-2, the IC50 is 54 µM, the “COX-2/COX-1 selectivity” value is recorded as “higher COX-2/COX-1 selectivity than for meloxicam”, the “COX-2 inhibition effect compared with meloxicam” value is reported as “stronger COX-2 inhibition effect than the meloxicam” and the “Ratio: COX-2/COX-1” value is given as 0.63. On ovine COX-1, this molecule displayed an IC50 of 86.1 µM.
